According to the OligoGym collection:
“And” between values parts separate entries of the source, which are not always exact repeats. Equal values may be shown once. After the bases stand the sugars from the 5' end (letter, count) and the backbone: PS all phosphorothioate, else s phosphorothioate and o phosphodiester by linkage. Methylation of C is not given here. e = 2'-O-(2-methoxyethyl) (MOE); k = constrained ethyl (cEt); d = 2'-deoxy (DNA)

What was measured:
[1] = molecular target: APOL1; conditions: ASO
[2] = molecular target: SOD1; conditions: ASO

Sequence: TAATTCTATTAGAGGG (sugars kkddddkekekddddd, PS)
- target mRNA inhibition ([1]; A431, 2 µM): 34%

Sequence: CGCAATGCTGACTTGG (sugars k3 d4 k3 e1 d5, PS)
- target mRNA inhibition ([1]; A431, 0.0156 µM): 34%
- target mRNA inhibition ([1]; A431, 0.04 µM): 50%
- target mRNA inhibition ([1]; A431, 0.0625 µM): 61%
- target mRNA inhibition ([1]; A431, 0.25 µM): 83%
- target mRNA inhibition ([1]; A431, 1 µM): 92%
- target mRNA inhibition ([1]; A431, 2 µM): 94%

Sequence: TATTTCTTGATGTGGT (sugars kkddddkekekkdddd, PS)
- target mRNA inhibition ([1]; A431, 2 µM): 71%

Sequence: GTGTTATATTTGATCC (sugars kkkddddkekeddddd, PS)
- target mRNA inhibition ([1]; A431, 0.0156 µM): 24%
- target mRNA inhibition ([1]; A431, 0.04 µM): 50%
- target mRNA inhibition ([1]; A431, 0.0625 µM): 66%
- target mRNA inhibition ([1]; A431, 0.25 µM): 89%
- target mRNA inhibition ([1]; A431, 1 µM): 95%
- target mRNA inhibition ([1]; A431, 2 µM): 96%

Sequence: ATGCTAATTTTCTGAC (sugars kkkddddkekekdddd, PS)
- target mRNA inhibition ([1]; A431, 0.0156 µM): 26%
- target mRNA inhibition ([1]; A431, 0.0625 µM): 46%
- target mRNA inhibition ([1]; A431, 0.25 µM): 68%
- target mRNA inhibition ([1]; A431, 1 µM): 88%
- target mRNA inhibition ([1]; A431, 2 µM): 95%

Sequence: ACGCAATGCTGACTTG (sugars kkkddddkdkdkdddd, PS)
- target mRNA inhibition ([1]; A431, 2 µM): 70%

Sequence: AGGATAACAGATGAGTT (sugars e3 k2 d7 k2 e3, PS)
- target mRNA inhibition ([2]; HepG2, 3 µM): 45%

Sequence: GTGATCATAAATCAGTTTCT (sugars e5 d10 e5, PS)
- target mRNA inhibition ([2]; HepG2, 5 µM): 37%

Sequence: ACACCTTCACTGGTCCATTA (sugars e5 d10 e5, linkages s1 o3 s11 o3 s1)
- target mRNA inhibition ([2]; A431, 0.12 µM): 5%
- target mRNA inhibition ([2]; A431, 0.6 µM): 4%
- target mRNA inhibition ([2]; A431, 3 µM): 4%
- target mRNA inhibition ([2]; A431, 15 µM): 10%
- target mRNA inhibition ([2]; HepG2, 2 µM): 50% and 36% and 39%

Sequence: ACAGGCTTGAATGACAAAGA (sugars e5 d10 e5, PS)
- target mRNA inhibition ([2]; HepG2, 5 µM): 19%

Sequence: TCACTACAGGTACTTTA (sugars e2 k2 d8 k2 e3, PS)
- target mRNA inhibition ([2]; HepG2, 5 µM): 27%

Sequence: AGATTACAGTGTTTAAT (sugars e2 k2 d8 k2 e3, PS)
- target mRNA inhibition ([2]; HepG2, 0.1875 µM): 16%
- target mRNA inhibition ([2]; HepG2, 0.75 µM): 50%
- target mRNA inhibition ([2]; HepG2, 3 µM): 62%
- target mRNA inhibition ([2]; HepG2, 5 µM): 68%
- target mRNA inhibition ([2]; HepG2, 12 µM): 77%

Sequence: TCGCCCTTCAGCACGCA (sugars e2 k2 d9 k2 e2, PS)
- target mRNA inhibition ([2]; HepG2, 4 µM): 63% and 60% and 54%
- target mRNA inhibition ([2]; HepG2, 5 µM): 61% and 58% and 71%
- target mRNA inhibition ([2]; HepG2, 12 µM): 74%

Sequence: CCACTCTGGCCCCAAAC (sugars e3 k2 d7 k2 e3, PS)
- target mRNA inhibition ([2]; HepG2, 3 µM): 17%

Sequence: CACCACAAGCCAAACGA (sugars e2 k2 d8 k2 e3, PS)
- target mRNA inhibition ([2]; HepG2, 4 µM): 48%

Sequence: ATAATAAGTGCCATACAGGG (sugars e5 d10 e5, PS)
- target mRNA inhibition ([2]; HepG2, 5 µM): 18%

Sequence: ATAATAAGTGCCATACA (sugars e2 k2 d8 k2 e3, PS)
- target mRNA inhibition ([2]; HepG2, 5 µM): 27%

Sequence: CCCAATTACACCACAAG (sugars e2 k2 d8 k2 e3, PS)
- target mRNA inhibition ([2]; HepG2, 4 µM): 63%

Sequence: CCGTCGCCCTTCAGCACGCA (sugars e5 d8 e7, linkages s1 o3 s10 o3 s2)
- target mRNA inhibition ([2]; A431, 0.062 µM): 8%
- target mRNA inhibition ([2]; A431, 0.185 µM): 4%
- target mRNA inhibition ([2]; A431, 0.556 µM): 5%
- target mRNA inhibition ([2]; A431, 1.667 µM): 4%
- target mRNA inhibition ([2]; A431, 5 µM): 9%
- target mRNA inhibition ([2]; A431, 15 µM): 3%
- target mRNA inhibition ([2]; SH-SY5Y, 0.062 µM): 11%
- target mRNA inhibition ([2]; SH-SY5Y, 0.185 µM): 15%
- target mRNA inhibition ([2]; SH-SY5Y, 0.556 µM): 9%
- target mRNA inhibition ([2]; SH-SY5Y, 1.667 µM): 30%
- target mRNA inhibition ([2]; SH-SY5Y, 5 µM): 59%
- target mRNA inhibition ([2]; SH-SY5Y, 15 µM): 76%

Sequence: CAGGCCTTCAGTCAGTCCTT (sugars e5 d10 e5, PS)
- target mRNA inhibition ([2]; HepG2, 5 µM): 56% and 51%

Sequence: TGTGATTTAAGTCTGGC (sugars e2 k2 d9 k2 e2, PS)
- target mRNA inhibition ([2]; HepG2, 5 µM): 58%

Sequence: CCAAGGGAATGTTTATT (sugars e3 k2 d7 k2 e3, PS)
- target mRNA inhibition ([2]; HepG2, 3 µM): 36%

Sequence: TTAAGTCTGGCAAAATA (sugars e3 k2 d7 k2 e3, PS)
- target mRNA inhibition ([2]; HepG2, 3 µM): 2%

Sequence: CCGTCGCCCTTCAGCAC (sugars e2 k2 d9 k2 e2, PS)
- target mRNA inhibition ([2]; HepG2, 0.1875 µM): 24%
- target mRNA inhibition ([2]; HepG2, 0.75 µM): 42%
- target mRNA inhibition ([2]; HepG2, 3 µM): 80%
- target mRNA inhibition ([2]; HepG2, 4 µM): 75%
- target mRNA inhibition ([2]; HepG2, 12 µM): 94%

Sequence: ATCAGTTTCTCACTACA (sugars e2 k2 d8 k2 e3, PS)
- target mRNA inhibition ([2]; HepG2, 5 µM): 31%

Sequence: AGTGATCATAAATCAGT (sugars e2 k2 d8 k2 e3, PS)
- target mRNA inhibition ([2]; HepG2, 5 µM): 23%

Sequence: GTTTAATACCCATCTGT (sugars e3 k2 d7 k2 e3, PS)
- target mRNA inhibition ([2]; HepG2, 3 µM): 17%

Sequence: GGCCTTCAGTCAGTCCTTTA (sugars e5 d10 e5, PS)
- target mRNA inhibition ([2]; HepG2, 5 µM): 41% and 39%

Sequence: TGATTTAAGTCTGGCAA (sugars e2 k2 d8 k2 e3, PS)
- target mRNA inhibition ([2]; HepG2, 5 µM): 52%

Sequence: CCGTCGCCCTTCAGCAC (sugars e3 k2 d7 k2 e3, PS)
- target mRNA inhibition ([2]; HepG2, 3 µM): 27%

Sequence: CTGACAAGTTTAATACC (sugars e2 k2 d8 k2 e3, PS)
- target mRNA inhibition ([2]; HepG2, 5 µM): 30%

Sequence: CCTTTGGCCCACCGTGT (sugars e3 k2 d7 k2 e3, PS)
- target mRNA inhibition ([2]; HepG2, 3 µM): 46%
